From ChEMBL document CHEMBL4219089, “Targeting RORs nuclear receptors by novel synthetic steroidal inverse agonists for autoimmune disorders” (Bioorg Med Chem, 2018) come the findings set out here.

Data set [1] deals with HepG2. Nature of the data set: Cytotoxicity against human HepG2 cells assessed as effect on cell viability at 6.25 uM after 24 hrs by MTT assay. The settings on record: hepg2, 24 h. The data set is classed as cell-based.
Data set [2] concerns HepG2. Nature of the data set: Cytotoxicity against human HepG2 cells assessed as effect on cell viability at 6.25 to 50 uM after 24 hrs by MTT assay. In kind it is cell-based. The settings on record: hepg2, 24 h.
Data set [3] relates to HEK293. Nature of the data set: Cell cycle arrest in HEK293 cells at 10 to 20 uM after 24 hrs by propidium iodide staining based flow cytometric method. The settings on record: human, hek293, 24 h.
For data set [4], the system named is HepG2. Nature of the data set: Cell cycle arrest in human HepG2 cells at 10 to 20 uM after 24 hrs by propidium iodide staining based flow cytometric analysis. The settings on record: hepg2, 24 h. The data set is classed as ADME.
The test system of data set [5] is HEK293. Nature of the data set: Cell cycle arrest in HEK293 cells expressing GAL4-fused RORgammat at 10 to 20 uM after 24 hrs by propidium iodide staining based flow cytometric method. The data set is classed as ADME. To be noted: human, hek293, 24 h.
Data set [6] relates to HEK293. Description: Cytotoxicity against HEK293 cells assessed as effect on cell viability at 10 to 20 uM after 24 hrs by MTT assay. The data set is classed as cell-based. The settings on record: human, hek293, 24 h.
Data set [7] has as its target T1, Nuclear receptor ROR-gamma (Homo sapiens) (UniProt P51449).
T1 sequence (whole entry): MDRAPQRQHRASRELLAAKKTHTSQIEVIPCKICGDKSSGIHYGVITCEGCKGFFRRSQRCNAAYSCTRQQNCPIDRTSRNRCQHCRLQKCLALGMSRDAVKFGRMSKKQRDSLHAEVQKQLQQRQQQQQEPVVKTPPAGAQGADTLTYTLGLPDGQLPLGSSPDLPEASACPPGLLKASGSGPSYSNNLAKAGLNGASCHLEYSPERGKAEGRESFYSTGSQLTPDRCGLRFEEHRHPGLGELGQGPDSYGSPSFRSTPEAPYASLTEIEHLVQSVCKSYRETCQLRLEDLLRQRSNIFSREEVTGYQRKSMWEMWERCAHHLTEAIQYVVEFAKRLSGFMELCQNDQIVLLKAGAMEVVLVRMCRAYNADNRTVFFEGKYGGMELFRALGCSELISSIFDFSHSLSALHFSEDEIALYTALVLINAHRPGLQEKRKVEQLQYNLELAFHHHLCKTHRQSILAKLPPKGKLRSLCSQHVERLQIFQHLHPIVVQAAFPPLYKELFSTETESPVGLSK
Nature of the data set: (§1) Inverse agonist activity at Gal4-fused RORgammat LBD (unknown origin) expressed in HEK293 cells measured after 48 hrs post transfection by dual-luciferase reporter gene assay. The data set is classed as cell-based.

The target in data set [8] is T2, Nuclear receptor ROR-gamma (Homo sapiens, UniProt P51449).
T2 sequence (P51449 whole entry): T1 sequence (whole entry)
Described as §1. The data set is classed as cell-based.

In data set [9] the test system is HEK293. Description: Cytotoxicity against HEK293 cells expressing GAL4-fused RORgammat assessed as effect on cell viability at 10 to 20 uM after 24 hrs by MTT assay. In kind it is cell-based. To be noted: human, hek293, 24 h.
The target of data set [10] is T3, Estrogen receptor (Homo sapiens, UniProt P03372).
T3 sequence (P03372 whole entry): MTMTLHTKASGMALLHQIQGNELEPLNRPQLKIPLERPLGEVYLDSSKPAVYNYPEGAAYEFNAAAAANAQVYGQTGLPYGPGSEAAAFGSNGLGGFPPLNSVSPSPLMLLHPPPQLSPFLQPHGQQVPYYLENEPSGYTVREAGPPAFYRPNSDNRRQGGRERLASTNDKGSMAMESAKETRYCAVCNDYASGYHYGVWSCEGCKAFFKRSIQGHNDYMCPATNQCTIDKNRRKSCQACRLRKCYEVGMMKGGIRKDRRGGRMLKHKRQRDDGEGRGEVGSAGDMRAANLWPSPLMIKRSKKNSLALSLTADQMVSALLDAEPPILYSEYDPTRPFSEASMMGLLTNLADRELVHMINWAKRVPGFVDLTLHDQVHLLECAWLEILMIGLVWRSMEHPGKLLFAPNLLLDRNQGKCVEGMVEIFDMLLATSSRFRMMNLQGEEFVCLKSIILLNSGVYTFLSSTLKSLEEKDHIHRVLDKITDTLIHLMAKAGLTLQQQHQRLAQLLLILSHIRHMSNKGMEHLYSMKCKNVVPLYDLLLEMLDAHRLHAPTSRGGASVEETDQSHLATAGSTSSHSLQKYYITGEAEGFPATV
Nature of the data set: Estrogenic activity at estrogen receptor in human MCF7 cells assessed as increase in CXCL12 gene expression at 2 uM after 24 hrs by qRT-PCR analysis. In kind it is ADME, cell-based. The settings on record: mcf7, 24 h.

The target of data set [11] is T3, Estrogen receptor. Nature of the data set: Estrogenic activity at estrogen receptor in human MCF7 cells assessed as increase in GREB1 gene expression at 2 uM after 24 hrs by qRT-PCR analysis. In kind it is ADME, cell-based. To be noted: mcf7, 24 h.
Data set [12] relates to HepG2. Nature of the data set: Cytotoxicity against human HepG2 cells assessed as effect on cell viability at 25 to 50 uM after 24 hrs by MTT assay. The data set is classed as cell-based. The settings on record: hepg2, 24 h.

On to `C[C@]12CC[C@@H]3c4cc(-c5ccc(-c6ccccc6)cc5)c(O)cc4CC[C@H]3[C@@H]1CC(C(=O)O)C2O` (stereo not given in full), for which, in data set [1], the Activity result was “Toxic”.

For the compound `C[C@]12CC[C@@H]3c4cc(-c5cccc6c5oc5ccccc56)c(O)cc4CC[C@H]3[C@@H]1CC(C(=O)O)C2O` (stereo not given in full), the Activity entry in data set [2] is “Non-Toxic”; in data set [3] it was “Non-Toxic”; in data set [4] it was “Non-Toxic”; in data set [5], “Non-Toxic”; in [6] it was “Non-Toxic”; in data set [7] it was “Dose-dependent effect”. Further, the Activity result in [9] is listed as “Non-Toxic”. Also, in [8], the IC50 came to 4.7 µM.

As for `COc1cc2c(cc1C13CC4CC(CC(C4)C1)C3)[C@H]1CC[C@]3(C)C=C(C(=O)O)C[C@H]3[C@@H]1CC2`, the Activity entry in data set [2] was “Non-Toxic”; in [3], “Non-Toxic”; in data set [4], “Non-Toxic”; in data set [5], “Non-Toxic”; in [6] it was “Non-Toxic”; in [7] it was “Dose-dependent effect”. Moreover, the Activity result in [10] is recorded as “Not Active”; in [9], “Non-Toxic”; in [11] it was “Not Active”. Also, the IC50 in data set [8] turned out to be 6.8 µM.

Take `C[C@@]12C=C(C(=O)O)C[C@H]1[C@@H]1CCc3cc(O)c(C(=O)c4ccccc4)cc3[C@H]1CC2`: the Activity result in data set [3] was “Non-Toxic”; in data set [4], “Non-Toxic”; in data set [5], “Non-Toxic”; in [12], “Toxic”; in data set [6] it was “Non-Toxic”; in data set [7], “Dose-dependent effect”. The Activity entry is recorded as “Not Active” in [10], “Non-Toxic” in data set [9] and “Not Active” in [11]. The IC50 in data set [8] stood at 4.4 µM.

For the compound `C[C@]12CC[C@@H]3c4cc(-c5ccccc5)c(O)cc4CC[C@H]3[C@@H]1CC(C(=O)O)C2O` (stereo not given in full), the Activity entry in data set [1] is “Toxic”.

Consider `C[C@@]12C=C(C(=O)O)C[C@H]1[C@@H]1CCc3cc(O)c(C45CC6CC(CC(C6)C4)C5)cc3[C@H]1CC2`, for which the Activity entry in [2] is “Non-Toxic”; in data set [3], “Non-Toxic”; in data set [4], “Non-Toxic”; in data set [5], “Non-Toxic”; in [6], “Non-Toxic”; in data set [7], “Dose-dependent effect”. In addition, the Activity result is “Active” in [10], “Non-Toxic” in data set [9] and “Active” in data set [11]. Besides, the IC50 in data set [8] was found to be 6.5 µM.
